We go through 18 molecules from PubChem BioAssay AID248 (DTP/NCI, 2004).

Several values for one entry are separate records, joined by “and”; a condition that tells them apart may be missing. Equal values may be shown once. Toxic doses and inconclusive results are not listed. Peptide text beside a SMILES is read from it.

The test system of the test is L1210 leukemia ip in BDF1 mice, survival T/C. Put plainly: NCI In Vivo Anticancer Drug Screen. Data for tumor model L1210 Leukemia (intraperitoneal) in B6D2F1 (BDF1) mice. The following applies: endpoint: mean survival time, higher = longer survival. An outline of the steps: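 Read-out is survival time, reported as the treated-group measurement over the vehicle-control measurement.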

Setting [1] is: dose: 75.0 mg/kg/injection, schedule: Q04DX003 (ip), vehicle: saline with Tween-80.
Where [2] appears, read: dose: 100.0 mg/kg/injection, schedule: Q01DX001 (ip), vehicle: saline.
Where [3] appears, read: dose: 200.0 mg/kg/injection, schedule: Q01DX001 (ip), vehicle: saline.
Setting [4] is: dose: 400.0 mg/kg/injection, schedule: Q01DX001 (ip), vehicle: saline.
Setting [5] is: dose: 50.0 mg/kg/injection, schedule: Q01DX001 (ip), vehicle: saline.
The mark [6] stands for this setting: dose: 100.0 mg/kg/injection, schedule: Q04DX003 (ip), vehicle: Klucel (hydroxypropylcellulose) (HPC).
The mark [7] stands for this setting: dose: 200.0 mg/kg/injection, schedule: Q04DX003 (ip), vehicle: Klucel (hydroxypropylcellulose) (HPC).
Setting [8] is: dose: 400.0 mg/kg/injection, schedule: Q04DX003 (ip), vehicle: Klucel (hydroxypropylcellulose) (HPC).

Take `Cc1ccc(Nc2c3ccccc3nc3ccccc23)cc1`: the T/C is, setting by setting: (dose: 18.0 mg/kg/injection, schedule: Q01DX009 (ip), vehicle: saline with Tween-80) 100 % of control; (dose: 37.5 mg/kg/injection, schedule: Q01DX009 (ip), vehicle: saline with Tween-80) 110 % of control; (dose: 40.0 mg/kg/injection, schedule: Q04DX003 (ip), vehicle: saline with Tween-80) 96 % of control; (dose: 65.0 mg/kg/injection, schedule: Q04DX003 (ip), vehicle: saline with Tween-80) 106 % of control; (dose: 75.0 mg/kg/injection, schedule: Q01DX001 (ip), vehicle: saline) 100 % of control (2×) and 105 % of control; (dose: 75.0 mg/kg/injection, schedule: Q01DX009 (ip), vehicle: saline with Tween-80) 113 % of control. Further, the T/C runs as follows: under setting [1], 100 % of control; (dose: 95.0 mg/kg/injection, schedule: Q04DX003 (ip), vehicle: saline with Tween-80) 123 % of control; (dose: 150.0 mg/kg/injection, schedule: Q01DX001 (ip), vehicle: saline) 118 % of control; (dose: 150.0 mg/kg/injection, schedule: Q04DX003 (ip), vehicle: saline with Tween-80) 107 % of control and 88 % of control; (dose: 225.0 mg/kg/injection, schedule: Q04DX003 (ip), vehicle: saline with Tween-80) 118 % of control.

Consider `O=[N+]([O-])c1ccc(O)c(N=Cc2ccccc2O)c1`, for which the T/C is, setting by setting: (dose: 100.0 mg/kg/injection, schedule: Q01DX001 (ip), vehicle: carboxymethylcellulose (CMC)) 102 % of control; (dose: 200.0 mg/kg/injection, schedule: Q01DX001 (ip), vehicle: carboxymethylcellulose (CMC)) 96 % of control; (dose: 400.0 mg/kg/injection, schedule: Q01DX001 (ip), vehicle: carboxymethylcellulose (CMC)) 96 % of control.

With `O=C(O)[C@@H]1C[C@@H](O)CN1`, the T/C runs as follows: under setting [2], 87 % of control; under setting [3], 100 % of control; under setting [4], 94 % of control.

As to `CCCCCCCNC(=O)CI`, the T/C reads like this: under setting [2], 103 % of control; under setting [3], 111 % of control.

Consider `O=C(c1ccccc1)C(C(c1ccccc1)N1CCOCC1)N1CCOCC1` (stereo unspecified), for which the T/C was 113 % of control under setting [5], 102 % of control under setting [2], 108 % of control under setting [3] and 102 % of control under setting [4].

With `Clc1ccc(Nc2cc[n+]3ccccc3c2)cc1Cl`, the T/C runs as follows: (dose: 25.0 mg/kg/injection, schedule: Q01DX001 (ip), vehicle: Klucel (hydroxypropylcellulose) (HPC)) 98 % of control; (dose: 50.0 mg/kg/injection, schedule: Q01DX001 (ip), vehicle: Klucel (hydroxypropylcellulose) (HPC)) 96 % of control; (dose: 100.0 mg/kg/injection, schedule: Q01DX001 (ip), vehicle: Klucel (hydroxypropylcellulose) (HPC)) 102 % of control and 117 % of control.

As for `CC(NC(=O)C(CCC(=O)NCC(=O)O)NC(=O)C(N)Cc1ccc(O)cc1)C(=O)NCC(=O)NC(Cc1ccc(O)cc1)C(=O)NC(CCC(=O)NCC(=O)O)C(=O)NC(C)C(=O)NCC(=O)NCC(=O)O` (stereo unspecified) (H-YE(Gly)AGYE(Gly)AGG-OH; configuration not given here), the T/C is, setting by setting: under setting [5], 92 % of control; under setting [2], 92 % of control; under setting [3], 93 % of control.

On to `CCOC(=O)CCc1ccc(N=NN(C)C)cc1`, for which the T/C (dose: 125.0 mg/kg/injection, schedule: Q01DX009 (ip), vehicle: saline) was 115 % of control.

With `CCN(CC)CC(=O)c1ccc(O)c(O)c1`, the T/C is 109 % of control (dose: 53.0 mg/kg/injection, schedule: Q01DX Z (ip), vehicle: carboxymethylcellulose (CMC)); 120 % of control (dose: 83.0 mg/kg/injection, schedule: Q01DX Z (ip), vehicle: carboxymethylcellulose (CMC)); 105 % of control (dose: 125.0 mg/kg/injection, schedule: Q01DX Z (ip), vehicle: carboxymethylcellulose (CMC)); 115 % of control (dose: 187.0 mg/kg/injection, schedule: Q01DX Z (ip), vehicle: carboxymethylcellulose (CMC)).

Take `OC(CN1CCN(c2ccccc2)CC1)c1cc2ccccc2o1` (stereo unspecified): the T/C is, setting by setting: (dose: 100.0 mg/kg/injection, schedule: Q04DX003 (ip), vehicle: saline with Tween-80) 104 % of control; (dose: 200.0 mg/kg/injection, schedule: Q04DX003 (ip), vehicle: saline with Tween-80) 94 % of control; (dose: 400.0 mg/kg/injection, schedule: Q04DX003 (ip), vehicle: saline with Tween-80) 94 % of control.

With `CC(=O)Nc1cccc(OCCCOc2cccc(C#N)c2)c1`, the T/C is, setting by setting: under setting [6], 96 % of control; under setting [7], 101 % of control; under setting [8], 98 % of control.

With `C[C@@H]1C[C@H]2[C@@H]3CCC4=CC(=O)C=C[C@]4(C)[C@@]3(F)[C@@H](O)C[C@]2(C)[C@@]1(O)C(=O)CO`, the T/C is, setting by setting: (dose: 3.12 mg/kg/injection, schedule: Q01DX009 (ip), vehicle: Klucel (hydroxypropylcellulose) (HPC)) 102 % of control; (dose: 6.25 mg/kg/injection, schedule: Q01DX009 (ip), vehicle: Klucel (hydroxypropylcellulose) (HPC)) 95 % of control; (dose: 10.0 mg/kg/injection, schedule: Q01DX Z (sc), vehicle: steriod suspending solution) 112 % of control; (dose: 12.5 mg/kg/injection, schedule: Q01DX009 (ip), vehicle: Klucel (hydroxypropylcellulose) (HPC)) 98 % of control; (dose: 12.5 mg/kg/injection, schedule: Q01DX009 (ip), vehicle: saline) 111 % of control; (dose: 25.0 mg/kg/injection, schedule: Q01DX009 (ip), vehicle: Klucel (hydroxypropylcellulose) (HPC)) 96 % of control. Further, the T/C runs as follows: (dose: 25.0 mg/kg/injection, schedule: Q01DX009 (ip), vehicle: saline sonified) 99 % of control; (dose: 25.0 mg/kg/injection, schedule: Q01DX009 (ip), vehicle: saline) 96 % of control; (dose: 25.0 mg/kg/injection, schedule: Q01DX Z (sc), vehicle: steriod suspending solution) 112 % of control; (dose: 37.5 mg/kg/injection, schedule: Q04DX003 (ip), vehicle: saline with Tween-80) 93 % of control; (dose: 50.0 mg/kg/injection, schedule: Q01DX009 (ip), vehicle: Klucel (hydroxypropylcellulose) (HPC)) 91 % of control; (dose: 50.0 mg/kg/injection, schedule: Q01DX009 (ip), vehicle: saline sonified) 99 % of control. The T/C by setting is: (dose: 50.0 mg/kg/injection, schedule: Q01DX009 (ip), vehicle: saline) 107 % of control; (dose: 50.0 mg/kg/injection, schedule: Q01DX Z (sc), vehicle: steriod suspending solution) 110 % of control; under setting [1], 95 % of control; (dose: 100.0 mg/kg/injection, schedule: Q01DX009 (ip), vehicle: Klucel (hydroxypropylcellulose) (HPC)) 91 % of control; (dose: 100.0 mg/kg/injection, schedule: Q01DX009 (ip), vehicle: saline sonified) 106 % of control; under setting [6], 102 % of control.

For the molecule `CCC1CN1P1(=O)OCC(C)(C(=O)OC)CO1` (stereo unspecified), the T/C under setting [2] is 101 % of control, the T/C under setting [3] is 108 % of control and the T/C under setting [4] was 101 % of control.

`O=C(CNC(=O)c1ccccc1)N/N=C/c1ccc(Cl)cc1Cl`: the T/C is 94 % of control (dose: 100.0 mg/kg/injection, schedule: Q01DX009 (ip), vehicle: saline with Tween-80); 89 % of control (dose: 200.0 mg/kg/injection, schedule: Q01DX009 (ip), vehicle: saline with Tween-80); 98 % of control (dose: 400.0 mg/kg/injection, schedule: Q01DX009 (ip), vehicle: saline with Tween-80).

`CC1C(Cl)(Cl)C1(C)/C=C/C1C(C)(C)C1(Cl)Cl` (stereo unspecified): the T/C by setting is: (dose: 100.0 mg/kg/injection, schedule: Q01DX001 (ip), vehicle: other) 260 % of control; under setting [2], 106 % of control; (dose: 178.0 mg/kg/injection, schedule: Q01DX001 (ip), vehicle: saline) 101 % of control; (dose: 200.0 mg/kg/injection, schedule: Q01DX001 (ip), vehicle: other) 117 % of control; under setting [3], 108 % of control; (dose: 267.0 mg/kg/injection, schedule: Q01DX001 (ip), vehicle: saline) 97 % of control. The T/C runs as follows: (dose: 400.0 mg/kg/injection, schedule: Q01DX001 (ip), vehicle: other) 202 % of control; under setting [4], 95 % of control and 97 % of control; (dose: 600.0 mg/kg/injection, schedule: Q01DX001 (ip), vehicle: saline) 88 % of control.

With `[O-][n+]1cc(-c2ccccc2)cc2ccccc21`, the T/C under setting [2] was 96 % of control.

On to `Nc1ccc(S(=O)(=O)O)c2ccccc12`, for which the T/C reads like this: under setting [5], 94 % of control; under setting [2], 94 % of control; under setting [3], 103 % of control; under setting [4], 94 % of control.

`CCCCCCCCCCC[CH2][Hg][CH2]CCCCCCCCCCC`: the T/C was 96 % of control under setting [6], 89 % of control under setting [7] and 87 % of control under setting [8].
